Results on 20 molecules are retold here after ChEMBL document CHEMBL4513161, “CO-ADD screening of MMV (CH) - Pandemic Response Box” (2021).

Values after ≈ are worked out from the molar mass of the structure shown. Structures can show the parent of a compound that is named as a salt.

For one assay, the system named is HEK293. The assay is described as follows: cells. The format is functional, Homo sapiens, ATCC CRL1573. Conditions: Homo sapiens, ATCC CRL1573, HEK293; ASSAY_TEST Inhibition of Cell Viability; detection method Resazurin; Fluorescence (ex560/em590); MEDIA DMEM with 10% FBS; plate type 384well; TC; CORNING #3712; time 18 hr; read-out: CC50. For orientation: The colour change of resazurin is a common sign of viable cells or microbes.

Assay [1] deals with Pseudomonas aeruginosa. The assay is described as follows: Antibacterial activity against Pseudomonas aeruginosa PAO397 [PAO1 d(mexAB-oprM) d(mexCD-oprJ) d(mexEF-oprN) d(mexJKL) d(mexXY) d(opmH)] (CO-ADD:GN_211); MIC in CAMBH media using NBS plates, by OD(600). The format is functional. Conditions: ASSAY_TEST Inhibition of Bacterial Growth, detection method Absorption (OD600), MEDIA CAMHB, plate type 384well, CORNING #3640, time 18 hr.

A further assay deals with Staphylococcus aureus. The assay is described as follows: microbe, parasite or virus in culture. Conditions: ATCC 43300, 18 h, ASSAY_TEST Inhibition of Bacterial Growth, detection method Absorption (OD600), MEDIA CAMHB, plate type 384well, NBS, CORNING #3640.
The subject of a further assay is Escherichia coli. The assay is described as follows: microbe, parasite or virus in culture. Conditions: ATCC 25922, 18 h, ASSAY_TEST Inhibition of Bacterial Growth, detection method Absorption (OD600), MEDIA CAMHB, plate type 384well, NBS, CORNING #3640.
A further assay deals with Klebsiella pneumoniae. The assay is described as follows: microbe, parasite or virus in culture. Conditions: ATCC 700603, 18 h, ASSAY_TEST Inhibition of Bacterial Growth, detection method Absorption (OD600), MEDIA CAMHB, plate type 384well, NBS, CORNING #3640.
Assay [2] concerns Pseudomonas aeruginosa. The assay is described as follows: microbe, parasite or virus in culture. Conditions: ATCC 27853, 18 h, ASSAY_TEST Inhibition of Bacterial Growth, detection method Absorption (OD600), MEDIA CAMHB, plate type 384well, NBS, CORNING #3640.
A further assay concerns Acinetobacter baumannii. The assay is described as follows: microbe, parasite or virus in culture. Conditions: ATCC 19606, 18 h, ASSAY_TEST Inhibition of Bacterial Growth, detection method Absorption (OD600), MEDIA CAMHB, plate type 384well, NBS, CORNING #3640.
A further assay relates to Candida albicans. The assay is described as follows: microbe, parasite or virus in culture. Conditions: ATCC 90028, ASSAY_TEST Inhibition of Fungal Growth, detection method Absorption (OD530), plate type 384well, NBS, CORNING #3640.

Broadly, the CC50 is the concentration that lowers cell viability or growth by half. With `CCNC(=O)Nc1cn2c(-c3ncc(CC)cn3)cc(-c3cccnc3)cc2n1`, the CC50 in the assay with HEK293 was over 20 µM. The MIC with Pseudomonas aeruginosa [1], in the assay with Cryptococcus neoformans, against Staphylococcus aureus, with Escherichia coli, against Klebsiella pneumoniae and in the assay with Pseudomonas aeruginosa [2] was over 20 µM in each case. For the same molecule, the MIC in the assay with Acinetobacter baumannii and against Candida albicans was over 20 µM each time.

With `CC(=O)N[C@H](C)C(=O)N[C@H](Cc1ccccc1)C(=O)O`, the CC50 in the assay with HEK293 was over 20 µM. The MIC in the assay on Pseudomonas aeruginosa [1], in the assay with Cryptococcus neoformans, with Staphylococcus aureus, against Escherichia coli, with Klebsiella pneumoniae and with Pseudomonas aeruginosa [2] was over 20 µM each time. In addition, the MIC in the assay on Acinetobacter baumannii and against Candida albicans was over 20 µM in each case.

`Nc1nc(=O)c(Br)c(-c2ccccc2)[nH]1` [BROPIRIMINE]: the CC50 in the assay with HEK293 is over 20 µM. Moreover, the MIC against Pseudomonas aeruginosa [1], against Cryptococcus neoformans, with Staphylococcus aureus, in the assay with Escherichia coli, against Klebsiella pneumoniae and against Pseudomonas aeruginosa [2] was over 20 µM throughout. Further, the MIC with Acinetobacter baumannii and with Candida albicans was over 20 µM each time.

In the case of `O=C(NNC(=S)Nc1ccc(Cl)cc1)c1ccncc1`, in the assay with HEK293, the half-maximal cytotoxic concentration (CC50) is over 20 µM. The MIC with Pseudomonas aeruginosa [1], in the assay with Cryptococcus neoformans, against Staphylococcus aureus, against Escherichia coli, with Klebsiella pneumoniae and against Pseudomonas aeruginosa [2] was over 20 µM in each case. For the same molecule, the MIC against Acinetobacter baumannii and against Candida albicans was over 20 µM throughout.

Regarding `NC1C2CC3CC(C2)CC1C3` (stereo not given), the half-maximal cytotoxic concentration (CC50) in the assay on HEK293 is over 20 µM. The MIC with Pseudomonas aeruginosa [1], with Cryptococcus neoformans, against Staphylococcus aureus, in the assay with Escherichia coli, against Klebsiella pneumoniae and against Pseudomonas aeruginosa [2] was over 20 µM in each case. Also, the MIC in the assay on Acinetobacter baumannii and in the assay with Candida albicans was over 20 µM throughout.

For the molecule `O=C(O)c1ccc(-c2ccc(O[C@H]3O[C@H](CO)[C@@H](O)[C@H](O)[C@@H]3O)cc2)cc1`, the CC50 in the assay on HEK293 is over 20 µM. Moreover, the MIC against Pseudomonas aeruginosa [1], against Cryptococcus neoformans, in the assay on Staphylococcus aureus, in the assay on Escherichia coli, against Klebsiella pneumoniae and against Pseudomonas aeruginosa [2] was over 20 µM each time. The MIC against Acinetobacter baumannii and with Candida albicans was over 20 µM each time.

For the molecule `Nc1nc(C(F)(F)F)cc2c1[nH]c(=O)n2Cc1ccccc1`, the 50% cytotoxic concentration (CC50) with HEK293 is over 20 µM. Besides, the MIC against Pseudomonas aeruginosa [1], against Cryptococcus neoformans, against Staphylococcus aureus, in the assay with Escherichia coli, with Klebsiella pneumoniae and in the assay with Pseudomonas aeruginosa [2] was over 20 µM throughout. The MIC in the assay on Acinetobacter baumannii and in the assay with Candida albicans was over 20 µM throughout.

As to `CCCCc1ccc(-c2cc(C(=O)O)cc(-c3ccc(Cl)cc3)n2)cc1`, the 50% cytotoxic concentration (CC50) in the assay with HEK293 was over 20 µM. Further, the MIC against Pseudomonas aeruginosa [1], against Cryptococcus neoformans, with Staphylococcus aureus, in the assay with Escherichia coli, in the assay on Klebsiella pneumoniae and in the assay with Pseudomonas aeruginosa [2] was over 20 µM in each case. The MIC with Acinetobacter baumannii and with Candida albicans was over 20 µM each time.

On to `OCCC#Cc1nc(-c2ccc(F)cc2)c(-c2ccncc2)n1CCCc1ccccc1` [RWJ-67657], for which, in the assay on HEK293, the CC50 was over 20 µM. The MIC with Pseudomonas aeruginosa [1], in the assay on Cryptococcus neoformans, with Staphylococcus aureus, against Escherichia coli, with Klebsiella pneumoniae and in the assay on Pseudomonas aeruginosa [2] was over 20 µM in each case. The MIC with Acinetobacter baumannii and against Candida albicans was over 20 µM each time.

Consider `O=c1oc2ccc(Br)cc2cc1CSc1ncc[nH]1`, for which the CC50 in the assay with HEK293 was over 20 µM. The MIC in the assay with Pseudomonas aeruginosa [1], in the assay on Cryptococcus neoformans, in the assay on Staphylococcus aureus, against Escherichia coli, in the assay with Klebsiella pneumoniae and against Pseudomonas aeruginosa [2] was over 20 µM each time. Also, the MIC with Acinetobacter baumannii and against Candida albicans was over 20 µM each time.

Consider `NC(=O)c1ccccc1NC(=O)c1ccc(C(=O)Nc2ccccc2C(N)=O)cc1`, for which the CC50 in the assay with HEK293 was over 20 µM. The MIC in the assay on Pseudomonas aeruginosa [1], with Cryptococcus neoformans, with Staphylococcus aureus, with Escherichia coli, in the assay with Klebsiella pneumoniae and against Pseudomonas aeruginosa [2] was over 20 µM throughout. Further, the MIC in the assay on Acinetobacter baumannii and with Candida albicans was over 20 µM each time.

With `O=C(O)c1ccccc1Sc1ncnc2sc3c(c12)CCC3`, in the assay with HEK293, the CC50 is over 20 µM. The MIC against Pseudomonas aeruginosa [1], in the assay with Cryptococcus neoformans, in the assay with Staphylococcus aureus, against Escherichia coli, against Klebsiella pneumoniae and with Pseudomonas aeruginosa [2] was over 20 µM throughout. Also, the MIC against Acinetobacter baumannii and against Candida albicans was over 20 µM each time.

Regarding `OB1OCc2cc(Cl)ccc21` [AN-2718], the CC50 in the assay with HEK293 was over 20 µM. Besides, the MIC in the assay with Pseudomonas aeruginosa [1], against Cryptococcus neoformans, against Staphylococcus aureus, against Escherichia coli, in the assay on Klebsiella pneumoniae and with Pseudomonas aeruginosa [2] was over 20 µM in each case. Moreover, the MIC against Acinetobacter baumannii was over 20 µM; in the assay with Candida albicans, 5 µM (≈ 0.842 µg/mL).

`CC(C)(C)c1cccc(-c2nc3cc(C(=N)N)ccc3[nH]2)c1O`: the CC50 in the assay with HEK293 was over 20 µM. Further, the MIC was over 20 µM against Pseudomonas aeruginosa [1]; over 20 µM against Cryptococcus neoformans; 10 µM (≈ 3.08 µg/mL) against Staphylococcus aureus; over 20 µM against Escherichia coli; over 20 µM with Klebsiella pneumoniae; over 20 µM in the assay with Pseudomonas aeruginosa [2]. Moreover, the MIC against Acinetobacter baumannii and with Candida albicans was over 20 µM each time.

With `CC1CCc2c(N3CCC(O)CC3)c(F)cc3c(=O)c(C(=O)O)cn1c23` (stereo not given) [NADIFLOXACIN], the 50% cytotoxic concentration (CC50) in the assay with HEK293 is over 20 µM. Besides, the MIC was at most 0.156 µM against Pseudomonas aeruginosa [1]; over 20 µM with Cryptococcus neoformans; at most 0.156 µM in the assay on Staphylococcus aureus; 0.625 µM (≈ 0.225 µg/mL) with Escherichia coli; 20 µM (≈ 7.21 µg/mL) in the assay with Klebsiella pneumoniae; 1.25 µM (≈ 0.45 µg/mL) with Pseudomonas aeruginosa [2]. The MIC against Acinetobacter baumannii is 20 µM (≈ 7.21 µg/mL); against Candida albicans it was over 20 µM.

For the molecule `CCOc1ccc(/C=N/NC(=O)C2CC2c2ccc(C(C)(C)C)cc2)cc1OCC` (stereo not given), in the assay on HEK293, the CC50 is over 20 µM. The MIC in the assay with Pseudomonas aeruginosa [1], in the assay with Cryptococcus neoformans, against Staphylococcus aureus, with Escherichia coli, in the assay on Klebsiella pneumoniae and with Pseudomonas aeruginosa [2] was over 20 µM each time. Also, the MIC against Acinetobacter baumannii and in the assay on Candida albicans was over 20 µM in each case.

For `O=C(O)[C@H]1C2CCC(CC2)[C@@H]1Nc1nc(-c2c[nH]c3ncc(F)cc23)ncc1F` [PIMODIVIR], the half-maximal cytotoxic concentration (CC50) in the assay on HEK293 is over 20 µM. The MIC in the assay with Pseudomonas aeruginosa [1], against Cryptococcus neoformans, with Staphylococcus aureus, with Escherichia coli, in the assay on Klebsiella pneumoniae and against Pseudomonas aeruginosa [2] was over 20 µM in each case. Moreover, the MIC in the assay on Acinetobacter baumannii and against Candida albicans was over 20 µM in each case.

In the case of `CC[C@@]1(O)C(=O)OCc2c1cc1n(c2=O)Cc2cc3c(CN(C)C)c(O)ccc3nc2-1` [TOPOTECAN HYDROCHLORIDE], in the assay with HEK293, the cytotoxic concentration (CC50) amounted to 0.218 µM. Moreover, the MIC with Pseudomonas aeruginosa [1], with Cryptococcus neoformans, with Staphylococcus aureus, in the assay on Escherichia coli, with Klebsiella pneumoniae and against Pseudomonas aeruginosa [2] was over 20 µM in each case. In addition, the MIC in the assay on Acinetobacter baumannii and in the assay with Candida albicans was over 20 µM each time.

Take `C(=C\c1nc2ccccc2[nH]1)/c1ccc2c(c1)OCO2`: the cytotoxic concentration (CC50) with HEK293 was over 20 µM. Further, the MIC in the assay with Pseudomonas aeruginosa [1], with Cryptococcus neoformans, in the assay on Staphylococcus aureus, with Escherichia coli, against Klebsiella pneumoniae and in the assay on Pseudomonas aeruginosa [2] was over 20 µM in each case. Besides, the MIC with Acinetobacter baumannii and in the assay with Candida albicans was over 20 µM in each case.

For `[N-]=[N+]=N[C@H]1C[C@H](n2ccc(=O)[nH]c2=O)O[C@@H]1CO` [NAVURIDINE], the CC50 with HEK293 is over 20 µM. The MIC with Pseudomonas aeruginosa [1], against Cryptococcus neoformans, with Staphylococcus aureus, in the assay on Escherichia coli, against Klebsiella pneumoniae and in the assay on Pseudomonas aeruginosa [2] was over 20 µM each time. Moreover, the MIC in the assay with Acinetobacter baumannii and in the assay with Candida albicans was over 20 µM in each case.
